Test [1] has as its system Human immunodeficiency virus 1. As to the kind of experiment: Antiviral activity against R5 tropic HIV1 BAL infected in human PBMC cells assessed as concentration at which p24 antigen produced after 7 days by ELISA. It counts as functional. Background: ELISA stands for enzyme-linked immunosorbent assay.
The subject of test [2] is Human immunodeficiency virus 1. As to the kind of experiment: Antiviral activity against R5 tropic HIV1 HXB2 infected in human TZM-bl cells assessed as inhibition of virus-induced cytopathic effect. It counts as functional, organism-based. The note with it: for IC50: Human immunodeficiency virus 1, HXB2, TZM-bl. In general terms: Damage to the host cells serves as the signal in cytopathic effect assays.

The nature of test [3]: (§1) Inhibition of HIV1 gp41-induced cell-cell fusion between viral envolop expressing human HeLa cells to CD4 receptor expressing TZM-bl cells. It counts as cell-based, Human immunodeficiency virus 1.
The next test relates to HeLa. Described as §1. Format: cell-based. The note with it: Human immunodeficiency virus 1.
Test [4] has as its system Human immunodeficiency virus 1. In words: Antiviral activity against R5 tropic HIV1 HXB2 infected in human PBMC cells assessed as concentration at which p24 antigen produced after 7 days by ELISA. Format: functional.
The subject of test [5] is Human immunodeficiency virus 1. As to the kind of experiment: Antiviral activity against R5X4 tropic HIV1 69/7 infected in human TZM-bl cells assessed as inhibition of virus-induced cytopathic effect. Format: functional, organism-based. As to conditions: for IC50: Human immunodeficiency virus 1, 69/7, TZM-bl.
For test [6], the system named is Human immunodeficiency virus 1. In words: Antiviral activity against R5 tropic HIV1 BAL infected in human TZM-bl cells assessed as inhibition of virus-induced cytopathic effect. It counts as functional, organism-based. The note with it: for IC50: Human immunodeficiency virus 1, BAL.
For test [7], the system named is Human immunodeficiency virus 1. In words: Inhibition of HIV1 gp41 fusion peptide at compound to fusion peptide ratio of 5 by fluorimetry.
Test [8] can be described thus: Inhibition of HIV1 gp41 fusion by surface plasmon resonance. Also on record: species or system Human immunodeficiency virus 1. In general terms: In SPR one partner is held on a chip, and binding of the other changes the refractive index at the surface.
The nature of test [9]: Inhibition of HIV1 gp41 fusion by isothermal titration. The arrangement: species or system Human immunodeficiency virus 1.

The term inhibition denotes the relative decrease from the control value, in per cent. For orientation: IC50 means the concentration that gives 50% inhibition. By Kd is commonly meant a measure of binding affinity in units of concentration. Lower therefore signals higher affinity.

Peptide text beside a SMILES is read from it.

For `CC[C@H](C)[C@H](NC(=O)[C@H](C)NC(=O)[C@H](CCC(N)=O)NC(=O)[C@@H](CS)NC(=O)[C@H](Cc1ccccc1)NC(=O)[C@H](C)NC(=O)[C@@H]1CCCN1C(=O)[C@@H](N)CC(C)C)C(=O)NCC(=O)N[C@@H](Cc1c[nH]c2ccccc12)C(=O)NCC(=O)N[C@@H](CC(=O)O)C(=O)N1CCC[C@H]1C(=O)N[C@H](C(=O)N[C@H](C(=O)N[C@@H](Cc1cnc[nH]1)C(=O)N[C@@H](Cc1c[nH]c2ccccc12)C(=O)N[C@@H](CO)C(=O)O)[C@@H](C)O)[C@@H](C)CC`, the Activity in [1] and in test [4] was 15.6 µM throughout. For the same compound, the inhibition entry (in [2]; with HeLa; in test [5]; in test [6]) was “Dose-dependent effect” throughout. Besides, the IC50 is 46 µM in [2], 370 µM in test [3], 71.4 µM in test [5] and 194 µM in [6].
In turn, `CC(C)C[C@H](NC(=O)[C@H](CC(=O)O)NC(=O)[C@H](CCCCN)NC(=O)[C@@H](NC(=O)[C@H](CC(C)C)NC(=O)[C@H](CCCCN)NC(=O)[C@@H]1CCCN1C(=O)CNC(=O)[C@H](C)NC(=O)CNC(=O)[C@H](CS)NC(=O)[C@H](CCCNC(=N)N)NC(=O)[C@H](Cc1cnc[nH]1)NC(=O)[C@H](Cc1ccccc1)NC(=O)[C@@H]1CCCN1C(=O)[C@H](Cc1ccccc1)NC(=O)[C@@H](N)CCCNC(=N)N)[C@H](C)O)C(=O)N[C@@H](CCC(=O)O)C(=O)O` gave a half-inhibitory concentration (IC50) in test [3] of 530 µM. For the same compound, the inhibition result in the test on HeLa is “Dose-dependent effect”; in test [7], 56.3%.
As to `CC[C@H](C)[C@H](NC(=O)[C@H](CS)NC(=O)[C@@H](NC(=O)[C@H](C)NC(=O)[C@H](CS)NC(=O)[C@@H]1CCCN1C(=O)[C@@H](NC(=O)CNC(=O)[C@H](Cc1c[nH]c2ccccc12)NC(=O)[C@H](CCC(=O)O)NC(=O)[C@H](CO)NC(=O)[C@H](CC(C)C)NC(=O)[C@H](CCC(=O)O)NC(=O)[C@@H](NC(=O)[C@@H](NC(=O)[C@@H](NC(=O)[C@@H](N)CC(=O)O)[C@@H](C)O)C(C)C)C(C)C)C(C)C)[C@@H](C)O)C(=O)N[C@@H](CC(C)C)C(=O)O` (H-DTVVELSEWGVPCATCIL-OH), the Activity turned out to be 31.2 µM in [1] and 7.8 µM in test [4]. In addition, the inhibition entry (in test [2]; with HeLa; in [5]; in test [6]) was “Dose-dependent effect” each time. For the same compound, the concentration for half-maximal inhibition (IC50) was determined as 39.9 µM in [2], 429 µM in [3], 24.1 µM in test [5] and 463 µM in test [6].
`CC(C)C[C@H](NC(=O)[C@H](CC(C)C)NC(=O)[C@@H](NC(=O)[C@@H](NC(=O)[C@H](CC(N)=O)NC(=O)CNC(=O)[C@H](CCCNC(=N)N)NC(=O)[C@H](CC(=O)O)NC(=O)[C@H](Cc1c[nH]c2ccccc12)NC(=O)[C@@H](NC(=O)[C@H](CCCCN)NC(=O)[C@H](CCC(=O)O)NC(=O)CNC(=O)[C@@H](N)[C@@H](C)O)C(C)C)C(C)C)[C@@H](C)O)C(=O)N[C@@H](CS)C(=O)N[C@@H](CC(=O)O)C(=O)N[C@@H](CS)C(=O)N1CCC[C@H]1C(=O)O` (H-TGEKVWDRGNVTLLCDCP-OH): the Activity in test [1] was 62.5 µM; in [4] it was 31.2 µM. The inhibition result is “Dose-dependent effect” in test [2]; “Dose-dependent effect” in the test on HeLa; 52.9% in [7]; “Dose-dependent effect” in test [5]; “Dose-dependent effect” in test [6]. In addition, the IC50 in test [2] came to 162 µM; in test [3] it was 440 µM; in [5], 209 µM; in test [6], 484 µM. In addition, the equilibrium dissociation constant (Kd) turned out to be 25.2 µM in test [8] and 33.3 µM in test [9].
Consider `CC[C@H](C)[C@H](NC(=O)[C@H](CS)NC(=O)[C@@H](NC(=O)[C@H](C)NC(=O)[C@H](CS)NC(=O)[C@@H]1CCCN1C(=O)[C@@H](NC(=O)CNC(=O)[C@H](Cc1c[nH]c2ccccc12)NC(=O)[C@H](CCC(=O)O)NC(=O)[C@H](CO)NC(=O)[C@H](CC(C)C)NC(=O)[C@H](CCC(=O)O)NC(=O)[C@@H](N)C(C)C)C(C)C)[C@@H](C)O)C(=O)N[C@@H](CC(C)C)C(=O)N[C@@H](CC(=O)O)C(=O)N[C@@H](CCCNC(=N)N)C(=O)N[C@@H](CCCNC(=N)N)C(=O)O` (H-VELSEWGVPCATCILDRR-OH), for which the Activity in test [1] and in [4] was 7.8 µM each time. The inhibition entry (in test [2]; with HeLa; in [5]; in test [6]) was “Dose-dependent effect” in each case. The concentration for half-maximal inhibition (IC50) stood at 58.6 µM in test [2], 331 µM in [3], 20.1 µM in [5] and 140 µM in test [6].
As to `C[C@@H]1[C@H](O)[C@@H](C)/C=C/C=C/C=C/C=C/C=C/C=C/C=C/[C@H](O[C@@H]2O[C@H](C)[C@@H](O)[C@H](N)[C@@H]2O)C[C@@H]2O[C@](O)(C[C@@H](O)C[C@@H](O)[C@H](O)CC[C@@H](O)C[C@@H](O)CC(=O)O[C@H]1C)C[C@H](O)[C@H]2C(=O)O` [AMPHOTERICIN B], the IC50 in test [2] was found to be 0.175 µM; in [6], 0.136 µM.
On to H-FCQAIGWGDPITHWSHGQ-OH, for which the Activity in test [1] was 15.6 µM; in test [4] it was 7.8 µM. The inhibition entry (in [2]; with HeLa; in test [5]; in test [6]) was “Dose-dependent effect” each time. In addition, the 50% inhibitory concentration (IC50) in test [2] was determined as 70.1 µM; in [3] it was 348 µM; in test [5], 111 µM; in [6], 126 µM.
H-GRPDGFIHVQGHLQEVDA-OH: the dissociation constant (Kd) in [8] amounted to 17.6 µM; in test [9] it was 20 µM. Moreover, in test [7], the inhibition came out at 17.9%.
In the case of H-HGQNRWPLSCPQYVYGSV-OH, in the test on HeLa, the IC50 was 304 µM and the inhibition entry was “Dose-dependent effect”.
In the case of H-LQEVDAGNFIPPPRWLLL-OH, the Activity in test [1] turned out to be 15.6 µM; in test [4], 7.8 µM. In addition, the inhibition result (in test [2]; in the test on HeLa; in test [5]; in [6]) was “Dose-dependent effect” in each case. In addition, the concentration for half-maximal inhibition (IC50) in test [2] worked out at 37.5 µM; in test [3], 687 µM; in test [5], 60.8 µM; in test [6] it was 295 µM.
As for H-LVRRRSELMGRRNPVCPG-OH, in test [3], the IC50 turned out to be 538 µM. For the same compound, the figures for the inhibition entry (with HeLa; in test [7]) were “Dose-dependent effect” and 46%, respectively. Moreover, the Kd turned out to be 22.4 µM in test [8] and 39.6 µM in test [9].
H-PITHWSHGQNRWPLSCPQ-OH came in with an IC50 in [3] of 509 µM. Also, the inhibition result with HeLa was “Dose-dependent effect”.
Consider H-SDRDTVVELSEWGVPCAT-OH, for which the Activity in test [1] amounted to 62.5 µM; in test [4], 31.2 µM. The inhibition result is “Dose-dependent effect” in test [2]; “Dose-dependent effect” in the test on HeLa; 59% in [7]; “Dose-dependent effect” in test [5]; “Dose-dependent effect” in [6]. Also, the IC50 in test [2] was 48.8 µM; in test [3] it was 141 µM; in test [5], 43.7 µM; in [6], 506 µM. Besides, the Kd in test [8] turned out to be 58.6 µM; in test [9] it was 63.6 µM.
H-SWFASTGGRDSKIDVWSL-OH: the Activity in [1] is 7.8 µM; in test [4], 62.5 µM. The inhibition entry in test [2], in test [5] and in test [6] was “Dose-dependent effect” each time. Besides, the 50% inhibitory concentration (IC50) worked out at 237 µM in test [2], 119 µM in test [5] and 411 µM in test [6].
For H-WVNQLAVLGLPAVDAAVA-OH, the Activity in [1] was 15.6 µM; in test [4], 7.8 µM. Further, the inhibition result (in [2]; in the test on HeLa; in test [5]; in test [6]) was “Dose-dependent effect” each time. The figures for the IC50 in [3] and in [6] were 333 µM and 94.7 µM, respectively.

For the origin of these results see ChEMBL document CHEMBL1212937, “Effect of synthetic peptides belonging to E2 envelope protein of GB virus C on human immunodeficiency virus type 1 infection” (J Med Chem, 2010).
